Laboratory results taken from patent US8076343B2, “Benzimidazoles useful as inhibitors of protein kinases” (Vertex Pharmaceuticals Incorporated, priority 2005, dated 2011).

Nc1nc2ccccc2n1-c1cc(NC2CCCNC2)ncn1 (stereo not shown) [Compound 3]
melting point: 87 to 88 °C
